{"source": "ChEMBL document CHEMBL1146739", "about": "“Alpha,alpha-trehalose derivatives bearing guanidino groups as inhibitors to HIV-1 Tat-TAR RNA interaction in human cells” (Bioorg Med Chem Lett, 2004)", "data": [{"test_system": "Nucleic Acid", "experiment": "Inhibitory activity against TatTAR RNA interaction in human cells by Tat-dependent HIV-1 long terminal repeats (LTR)-driven chloramphenicol acetyltransferase assay at 3 uM concentration; decreased from 69.5 to 44.2", "type": "cell-based", "parameters": "unit not given here", "values": [{"smiles": "N=C(N)NCC(=O)NCC1OC(OC2OC(CNC(=O)CNC(=N)N)C(O)C(O)C2O)C(O)C(O)C1O", "note": "(centres undefined)", "Activity": 44.2}, {"smiles": "N=C(N)NCC1OC(OC2OC(CNC(=N)N)C(O)C(O)C2O)C(O)C(O)C1O", "note": "(centres undefined)", "Activity": 44.2}, {"smiles": "NC(N)=NCCCC(N)C(=O)NCC1OC(OC2OC(CNC(=O)C(N)CCCN=C(N)N)C(O)C(O)C2O)C(O)C(O)C1O", "note": "(centres undefined)", "Activity": 44.2}, {"smiles": "N=C(N)NCCCC(=O)NCC1OC(OC2OC(CNC(=O)CCCNC(=N)N)C(O)C(O)C2O)C(O)C(O)C1O", "note": "(centres undefined)", "Activity": 44.2}]}]}
